Format in all cases: biochemical
The target of one experiment is T1, JAK3 (Homo sapiens, UniProt P52333).
T1 sequence (P52333 1-1124): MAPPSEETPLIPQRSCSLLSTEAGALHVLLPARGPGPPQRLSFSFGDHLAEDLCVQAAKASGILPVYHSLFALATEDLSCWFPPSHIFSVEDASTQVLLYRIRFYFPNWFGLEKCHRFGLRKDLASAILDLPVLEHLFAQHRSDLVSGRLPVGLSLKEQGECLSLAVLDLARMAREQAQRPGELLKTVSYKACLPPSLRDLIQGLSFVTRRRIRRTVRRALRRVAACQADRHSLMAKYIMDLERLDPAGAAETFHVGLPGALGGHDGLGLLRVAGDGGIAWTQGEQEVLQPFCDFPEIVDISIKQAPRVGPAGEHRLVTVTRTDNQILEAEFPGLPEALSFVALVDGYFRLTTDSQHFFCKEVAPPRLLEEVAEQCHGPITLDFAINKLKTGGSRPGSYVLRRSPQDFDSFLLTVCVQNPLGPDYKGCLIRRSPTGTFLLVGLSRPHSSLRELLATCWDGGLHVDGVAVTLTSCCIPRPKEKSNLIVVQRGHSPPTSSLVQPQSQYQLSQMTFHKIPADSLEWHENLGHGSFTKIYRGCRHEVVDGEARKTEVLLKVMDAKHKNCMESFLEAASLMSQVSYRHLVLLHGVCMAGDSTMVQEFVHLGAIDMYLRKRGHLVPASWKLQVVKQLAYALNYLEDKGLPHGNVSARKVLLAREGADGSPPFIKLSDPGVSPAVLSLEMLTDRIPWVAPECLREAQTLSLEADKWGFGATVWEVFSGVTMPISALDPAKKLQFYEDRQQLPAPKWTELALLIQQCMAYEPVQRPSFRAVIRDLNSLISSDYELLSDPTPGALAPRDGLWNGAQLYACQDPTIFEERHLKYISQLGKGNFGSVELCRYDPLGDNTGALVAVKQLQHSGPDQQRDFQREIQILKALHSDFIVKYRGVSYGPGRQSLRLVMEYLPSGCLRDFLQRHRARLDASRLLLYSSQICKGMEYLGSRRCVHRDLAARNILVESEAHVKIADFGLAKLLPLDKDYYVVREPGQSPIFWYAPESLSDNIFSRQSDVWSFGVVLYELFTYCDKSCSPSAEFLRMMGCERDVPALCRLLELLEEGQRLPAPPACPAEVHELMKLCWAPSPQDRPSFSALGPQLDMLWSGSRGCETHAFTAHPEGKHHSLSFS
In words: JAK3 inhibition assay (standard radioactive enzyme assay). To be noted: average Ki if more than one value determined.

In the next experiment the target is JAK2 (Homo sapiens, UniProt O60674). In words: JAK2 inhibition assay (radioactive enzyme assay, as for JAK3). To be noted: average Ki if more than one value determined. The essentials:
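Both kinases: poly(Glu)4Tyr substrate in 100 mM HEPES pH 7.4, 10 mM MgCl2, 1 mM DTT. Run 20 min at 25° C, TCA stop, filter-bound ³³P counted, Ki(app) fitted after background subtraction. JAK3: final [γ-³³P]ATP 5 μM, enzyme added as 2 nM solution. JAK2: final poly(Glu)4Tyr 15 μM, final ATP 12 μM.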

The target of the next experiment is T2, ROCK I (AA 6-553) (Homo sapiens, UniProt Q13464).
T2 construct: ROCK I (AA 6-553)
Briefly: ROCK inhibition assay, standard coupled enzyme system ("Enzyme"). Conditions: enzyme-linked assay. The essentials:
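ROCK I (AA 6-553) at 45 nM and 30 °C with 45 μM ATP and 200 μM peptide, in 100 mM HEPES pH 7.5, 10 mM MgCl2, 25 mM NaCl, 2 mM DTT, 1.5% DMSO. ADP output read by a PK/LDH coupled system: 2.5 mM PEP, 350 μM NADH, 30 μg/ml PK, 10 μg/ml LDH.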

Experiment [1] concerns the target T3, full length Aurora-A (AA 1-403) (Homo sapiens, UniProt O14965).
T3 construct: full length Aurora-A (AA 1-403)
T3 sequence (O14965 1-403): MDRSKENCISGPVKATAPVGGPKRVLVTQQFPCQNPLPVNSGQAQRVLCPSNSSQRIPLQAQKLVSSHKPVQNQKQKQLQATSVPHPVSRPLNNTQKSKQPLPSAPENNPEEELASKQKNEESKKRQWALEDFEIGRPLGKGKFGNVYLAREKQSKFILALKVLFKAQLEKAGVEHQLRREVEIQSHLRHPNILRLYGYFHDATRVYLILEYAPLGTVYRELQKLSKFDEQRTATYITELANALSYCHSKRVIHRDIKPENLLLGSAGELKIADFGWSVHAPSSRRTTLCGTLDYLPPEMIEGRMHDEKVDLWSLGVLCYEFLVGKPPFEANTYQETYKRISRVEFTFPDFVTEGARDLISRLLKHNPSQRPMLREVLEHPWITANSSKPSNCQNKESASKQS
Briefly: Aurora-A inhibition assay, standard coupled enzyme system. To be noted: average Ki if more than one value determined.

T2 sequence (Q13464 6-553, species assumed): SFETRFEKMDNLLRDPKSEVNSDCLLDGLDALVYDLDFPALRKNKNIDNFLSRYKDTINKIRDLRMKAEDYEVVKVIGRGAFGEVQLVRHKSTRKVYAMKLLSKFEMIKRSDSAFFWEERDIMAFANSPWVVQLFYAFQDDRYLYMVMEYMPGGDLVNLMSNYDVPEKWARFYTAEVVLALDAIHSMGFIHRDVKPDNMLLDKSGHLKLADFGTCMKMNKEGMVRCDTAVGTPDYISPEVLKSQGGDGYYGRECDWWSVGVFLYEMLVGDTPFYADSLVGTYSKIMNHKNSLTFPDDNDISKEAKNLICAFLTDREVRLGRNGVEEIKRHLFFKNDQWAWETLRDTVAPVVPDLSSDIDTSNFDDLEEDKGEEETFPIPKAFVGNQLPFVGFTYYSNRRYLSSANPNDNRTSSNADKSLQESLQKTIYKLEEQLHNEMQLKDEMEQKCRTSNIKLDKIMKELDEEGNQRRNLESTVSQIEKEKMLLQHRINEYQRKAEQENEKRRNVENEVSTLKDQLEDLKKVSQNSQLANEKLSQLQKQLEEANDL
JAK2, sequence (O60674 whole entry, species assumed): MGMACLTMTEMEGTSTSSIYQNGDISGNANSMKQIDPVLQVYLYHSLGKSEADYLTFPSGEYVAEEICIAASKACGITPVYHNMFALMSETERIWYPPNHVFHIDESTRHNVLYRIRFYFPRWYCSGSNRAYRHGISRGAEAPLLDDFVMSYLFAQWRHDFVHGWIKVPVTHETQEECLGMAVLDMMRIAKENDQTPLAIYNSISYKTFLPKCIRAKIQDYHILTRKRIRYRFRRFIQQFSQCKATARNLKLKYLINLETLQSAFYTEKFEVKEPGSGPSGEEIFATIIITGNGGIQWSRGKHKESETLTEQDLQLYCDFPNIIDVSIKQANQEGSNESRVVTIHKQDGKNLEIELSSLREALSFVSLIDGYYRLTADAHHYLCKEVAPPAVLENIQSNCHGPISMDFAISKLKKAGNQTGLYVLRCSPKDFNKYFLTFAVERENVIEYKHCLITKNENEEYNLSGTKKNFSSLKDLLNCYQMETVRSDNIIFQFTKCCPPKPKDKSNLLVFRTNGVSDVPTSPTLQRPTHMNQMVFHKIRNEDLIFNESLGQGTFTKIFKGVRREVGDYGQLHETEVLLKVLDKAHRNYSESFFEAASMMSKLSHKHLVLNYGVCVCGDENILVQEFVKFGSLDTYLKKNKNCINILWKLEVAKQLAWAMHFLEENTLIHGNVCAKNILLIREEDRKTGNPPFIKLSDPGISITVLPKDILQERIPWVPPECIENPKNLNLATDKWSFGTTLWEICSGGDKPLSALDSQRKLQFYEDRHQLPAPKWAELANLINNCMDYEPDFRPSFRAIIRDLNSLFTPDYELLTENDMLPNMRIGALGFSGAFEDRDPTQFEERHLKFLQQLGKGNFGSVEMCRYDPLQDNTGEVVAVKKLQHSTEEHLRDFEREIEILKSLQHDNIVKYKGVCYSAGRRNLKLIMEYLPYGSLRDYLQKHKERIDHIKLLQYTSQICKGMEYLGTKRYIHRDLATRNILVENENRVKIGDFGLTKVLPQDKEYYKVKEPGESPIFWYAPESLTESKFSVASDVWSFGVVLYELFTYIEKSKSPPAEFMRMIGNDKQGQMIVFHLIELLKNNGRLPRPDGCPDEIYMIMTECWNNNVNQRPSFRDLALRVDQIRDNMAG

Regarding `CC(=O)N1[C@H](C)CN(c2ccc([N+](=O)[O-])c(-c3c[nH]c4ncc(Cl)cc34)n2)C[C@@H]1C` [Compound 78], the inhibitory constant (Ki) on JAK3 was < 0.5 µM; at JAK2, < 0.5 µM; at ROCK I (AA 6-553) it was 0.5 to 5 µM; in experiment [1], < 0.5 µM.
Turning to `C=CC(=O)Nc1cnc2[nH]cc(-c3cccc(N4C[C@@H](C)N(C(C)=O)[C@@H](C)C4)n3)c2c1` [Compound 118], the Ki was < 0.5 µM at JAK3, < 0.5 µM on JAK2, 0.5 to 5 µM on ROCK I (AA 6-553) and 0.5 to 5 µM in experiment [1].
With `CC(=O)N1[C@H](C)CN(c2cccc(-c3c[nH]c4ncc(NC(=O)c5cscn5)cc34)n2)C[C@@H]1C` [Compound 162], the Ki is < 0.5 µM on JAK3, < 0.5 µM on JAK2, 0.5 to 5 µM at ROCK I (AA 6-553) and 0.5 to 5 µM in experiment [1].
In the case of `CC(C)[C@@H](C)Nc1cccc(-c2c[nH]c3ncc(Cl)cc23)n1` [Compound 130], the inhibitory constant (Ki) at JAK3 was < 0.5 µM; on JAK2, < 0.5 µM; on ROCK I (AA 6-553), 0.5 to 5 µM; in experiment [1], < 0.5 µM.
Take `CC(=O)N1[C@H](C)CN(c2cc(C(=O)O)cc(-c3c[nH]c4ncc(Cl)cc34)n2)C[C@@H]1C` [Compound 67]: the inhibition constant Ki was < 0.5 µM at JAK3, < 0.5 µM on JAK2, 0.5 to 5 µM at ROCK I (AA 6-553) and < 0.5 µM in experiment [1].
On to `CC(=O)N1[C@H](C)CN(c2nc(-c3c[nH]c4ncc(Cl)cc34)ccc2[N+](=O)[O-])C[C@@H]1C` [Compound 75], for which the inhibition constant (Ki) (at JAK3; on JAK2; at ROCK I (AA 6-553); in experiment [1]) was < 0.5 µM in each case.
With `CC(=O)N1[C@H](C)CN(c2ccc(-c3nnn[nH]3)c(-c3c[nH]c4ncc(Cl)cc34)n2)C[C@@H]1C` [Compound 110], the Ki (at JAK3; at JAK2; on ROCK I (AA 6-553); in experiment [1]) was 0.5 to 5 µM each time.
Turning to `CC(=O)N1CCCN(c2cccc(-c3c[nH]c4ncc(C(=O)NCCN5CCOCC5)cc34)n2)CC1` [Compound 124], the inhibitory constant (Ki) at JAK3 was < 0.5 µM; on JAK2, < 0.5 µM; at ROCK I (AA 6-553) it was 0.5 to 5 µM; in experiment [1], 0.5 to 5 µM.
For `CC(=O)N1[C@H](C)CN(c2cccc(-c3c[nH]c4ncc(NC(=O)/C=C/Cl)cc34)n2)C[C@@H]1C` [Compound 192], the Ki was < 0.5 µM on JAK3, < 0.5 µM on JAK2, < 0.5 µM at ROCK I (AA 6-553) and 0.5 to 5 µM in experiment [1].
As to `CCOC(=O)CCC(=O)Nc1cnc2[nH]cc(-c3cccc(N4C[C@@H](C)N(C(C)=O)[C@@H](C)C4)n3)c2c1` [Compound 119], the Ki was < 0.5 µM at JAK3, < 0.5 µM at JAK2, 0.5 to 5 µM on ROCK I (AA 6-553) and 0.5 to 5 µM in experiment [1].
With `CC(=O)N1[C@H](C)CN(c2cccc(-c3c[nH]c4ncc(C)cc34)n2)C[C@@H]1C` [Compound 41], the Ki at JAK3 is < 0.5 µM; at JAK2, < 0.5 µM; at ROCK I (AA 6-553), 0.5 to 5 µM; in experiment [1], < 0.5 µM.
Turning to `CC(=O)N1[C@H](C)CN(c2cccc(-c3c[nH]c4ncc(NC(=O)C5CC5)cc34)n2)C[C@@H]1C` [Compound 165], the inhibition constant Ki at JAK3 is < 0.5 µM; at JAK2 it was < 0.5 µM; at ROCK I (AA 6-553), 0.5 to 5 µM; in experiment [1], 0.5 to 5 µM.
With `CC(=O)N1[C@H](C)CN(c2cccc(-c3c[nH]c4ncc(C(=O)N5CCN(C)CC5)cc34)n2)C[C@@H]1C` [Compound 57], the Ki is 0.5 to 5 µM on JAK3, > 5 µM on JAK2, 0.5 to 5 µM on ROCK I (AA 6-553) and 0.5 to 5 µM in experiment [1].
In the case of `CC(=O)N1[C@H](C)CN(c2cccc(-c3c[nH]c4ncc(OCCN5CCOCC5)cc34)n2)C[C@@H]1C` [Compound 95], the inhibitory constant (Ki) (at JAK3; on JAK2; on ROCK I (AA 6-553); in experiment [1]) was 0.5 to 5 µM in each case.
As to `OC[C@@H](Nc1cccc(-c2c[nH]c3ncc(Cl)cc23)n1)c1ccccc1` [Compound 101], the inhibition constant Ki on JAK3 was < 0.5 µM; at JAK2 it was < 0.5 µM; at ROCK I (AA 6-553), 0.5 to 5 µM; in experiment [1] it was < 0.5 µM.
Consider `COC(=O)c1ccc(NCc2ccccc2)nc1-c1c[nH]c2ncc(Cl)cc12` [Compound 45], for which the Ki at JAK3 was < 0.5 µM; at JAK2, < 0.5 µM; on ROCK I (AA 6-553), 0.5 to 5 µM; in experiment [1], < 0.5 µM.
Consider `COCC(=O)Nc1cnc2[nH]cc(-c3cccc(N4C[C@@H](C)N(C(C)=O)[C@@H](C)C4)n3)c2c1` [Compound 170], for which the inhibition constant (Ki) was < 0.5 µM at JAK3, < 0.5 µM at JAK2, 0.5 to 5 µM on ROCK I (AA 6-553) and 0.5 to 5 µM in experiment [1].
As for `CC(=O)N1[C@H](C)CN(c2cccc(-c3c[nH]c4ncc(NC(=O)C5=CCCC5)cc34)n2)C[C@@H]1C` [Compound 157], the Ki at JAK3 was < 0.5 µM; on JAK2 it was < 0.5 µM; on ROCK I (AA 6-553), 0.5 to 5 µM; in experiment [1] it was 0.5 to 5 µM.
On to `CC(=O)N1CCCN(c2cccc(-c3c[nH]c4ncc(F)cc34)n2)CC1` [Compound 49], for which the Ki at JAK3 was < 0.5 µM; at JAK2 it was < 0.5 µM; at ROCK I (AA 6-553), 0.5 to 5 µM; in experiment [1], 0.5 to 5 µM.
For `CC(=O)N1[C@H](C)CN(c2cccc(-c3c[nH]c4ncc(NC(=O)C(C)C)cc34)n2)C[C@@H]1C` [Compound 117], the Ki is < 0.5 µM at JAK3, < 0.5 µM on JAK2, 0.5 to 5 µM on ROCK I (AA 6-553) and 0.5 to 5 µM in experiment [1].
`COC(=O)Nc1cnc2[nH]cc(-c3cccc(N4C[C@@H](C)N(C(C)=O)[C@@H](C)C4)n3)c2c1` [Compound 66]: the inhibition constant Ki at JAK3 was < 0.5 µM; on JAK2 it was < 0.5 µM; on ROCK I (AA 6-553), 0.5 to 5 µM; in experiment [1], 0.5 to 5 µM.
On to `Clc1cnc2[nH]cc(-c3cccc(CNc4ccccc4)c3)c2c1` [Compound 186], for which the Ki (at JAK3; at JAK2; in experiment [1]) was < 0.5 µM throughout.
For `Cc1cnc2[nH]cc(-c3cccc(NCc4ccccc4)n3)c2c1` [Compound 39], the Ki at JAK3 was < 0.5 µM; on JAK2, < 0.5 µM; at ROCK I (AA 6-553), 0.5 to 5 µM; in experiment [1] it was < 0.5 µM.
For `CC(=O)N1[C@H](C)CN(c2cccc(-c3c[nH]c4ncc(NC(=O)c5cccc(C#N)c5)cc34)n2)C[C@@H]1C` [Compound 179], the Ki on JAK3 was < 0.5 µM; at JAK2 it was < 0.5 µM; on ROCK I (AA 6-553), 0.5 to 5 µM; in experiment [1], 0.5 to 5 µM.
As to `CC(=O)N1[C@H](C)CN(c2cccc(-c3c[nH]c4ncc(NC(=O)C5CCCC5)cc34)n2)C[C@@H]1C` [Compound 166], the Ki is < 0.5 µM on JAK3, < 0.5 µM on JAK2, 0.5 to 5 µM on ROCK I (AA 6-553) and 0.5 to 5 µM in experiment [1].
Consider `CC(=O)N1[C@H](C)CN(c2cccc(-c3c[nH]c4ncc(C(=O)N5CCNCC5)cc34)n2)C[C@@H]1C` [Compound 56], for which the Ki on JAK3 is 0.5 to 5 µM; at JAK2, > 5 µM; in experiment [1] it was 0.5 to 5 µM.

What is called Ki is a measure of affinity in units of concentration, obtained from inhibition or displacement.
